Test results from ChEMBL document CHEMBL1122370 (J Med Chem, 1983).

Experiments:
[1] = system: L1210; test: In vivo antitumor activity against L1210 leukemia in 10 mice measured as median survival range at 120 mg/kg; Value ranges from(9-15); format: functional, Mus musculus
[2] = system: Mus musculus; test: In vivo antitumor activity against L1210 leukemia in 5 mice measured as median survival range at 200 mg/kg; Value ranges from(13-18); format: functional
[3] = system: L1210; test: In vivo antitumor activity against L1210 leukemia in 5 mice measured as median survival range at 280 mg/kg; Value ranges from(14-20); format: functional, Mus musculus
[4] = system: L1210; test: In vivo antitumor activity against L1210 leukemia in 5 mice measured as Increased life span at 240 mg/kg.; format: functional; details: Mus musculus
[5] = system: L1210; test: In vivo antitumor activity against L1210 leukemia in 10 mice measured as Increased life span at 160 mg/kg.; format: functional; details: Mus musculus
[6] = system: Mus musculus; test: Average weight of the mouse after treating with 160 mg/kg dose for 7 days.; format: functional
[7] = system: L1210; test: In vivo antitumor activity against L1210 leukemia in 5 mice measured as Increased life span at 280 mg/kg.; format: functional; details: Mus musculus
[8] = system: Mus musculus; test: Average weight of the mouse after treating with 160 mg/kg dose for 1 day.; format: functional
[9] = system: Mus musculus; test: In vivo antitumor activity against L1210 leukemia in 5 mice measured as Increased life span at 200 mg/kg.; format: functional
[10] = system: Mus musculus; test: Average weight of the mouse after treating with 280 mg/kg dose for 7 days.; format: functional
[11] = system: L1210; test: In vivo antitumor activity against L1210 leukemia in 5 mice measured as median survival range at 240 mg/kg; Value ranges from(13-18); format: functional, Mus musculus
[12] = system: Mus musculus; test: Average weight of the mouse after treating with 120 mg/kg dose for 7 days.; format: functional
[13] = system: Mus musculus; test: Average weight of the mouse after treating with 200 mg/kg dose for 7 days.; format: functional
[14] = system: L1210; test: In vivo antitumor activity against L1210 leukemia in 10 mice measured as Increased life span at 120 mg/kg.; format: functional; details: Mus musculus
[15] = system: L1210; test: In vivo antitumor activity against L1210 leukemia in 15 mice measured as T/C values(days); T/C = 15/9; format: functional, Mus musculus
[16] = system: L1210; test: In vivo antitumor activity against L1210 leukemia in 13 mice measured as T/C values(days); T/C = 13/9; format: functional, Mus musculus
[17] = system: L1210; test: In vivo antitumor activity against L1210 leukemia in 17 mice measured as T/C values(days); T/C = 17/9; format: functional, Mus musculus
[18] = system: Mus musculus; test: Average weight of the mouse after treating with 280 mg/kg dose for 1 day.; format: functional
[19] = system: Mus musculus; test: Average weight of the mouse after treating with 240 mg/kg dose for 7 days.; format: functional
[20] = system: Mus musculus; test: Average weight of the mouse after treating with 240 mg/kg dose for 1 day.; format: functional
[21] = system: Mus musculus; test: In vivo antitumor activity against L1210 leukemia in 16 mice measured as T/C values(days); T/C = 16/9; format: functional
[22] = system: L1210; test: In vivo antitumor activity against L1210 leukemia in 10 mice measured as median survival range at 160 mg/kg; Value ranges from(10-16).; format: functional, Mus musculus
[23] = system: Mus musculus; test: Average weight of the mouse after treating with 120 mg/kg dose for 1 day.; format: functional
[24] = system: Mus musculus; test: Average weight of the mouse after treating with 200 mg/kg dose for 1 day.; format: functional
[25] = system: L1210; test: In vivo antitumor activity against L1210 leukemia in 10 mice measured as median survival range at 120 mg/kg; Value ranges from(13-36); format: functional, Mus musculus
[26] = system: Mus musculus; test: Average weight of the mouse after treating with 20 mg/kg dose for 1 day.; format: functional; design: unit not given here
[27] = system: Mus musculus; test: Average weight of the mouse after treating with 80 mg/kg dose for 1 day.; format: functional; design: unit not given here
[28] = system: L1210; test: In vivo antitumor activity against L1210 leukemia in 5 mice measured as Increased life span at 40 mg/kg.; format: functional; details: Mus musculus
[29] = system: L1210; test: In vivo antitumor activity against L1210 leukemia in 5 mice measured as median survival range at 80 mg/kg; Value ranges from(13-26); format: functional, Mus musculus
[30] = system: Mus musculus; test: Average weight of the mouse after treating with 40 mg/kg dose for 1 day.; format: functional; design: unit not given here
[31] = system: Mus musculus; test: Average weight of the mouse after treating with 20 mg/kg dose for 7 days.; format: functional; design: unit not given beside the values
[32] = system: L1210; test: In vivo antitumor activity against L1210 leukemia in 5 mice measured as median survival range at 20 mg/kg; Value ranges from(11-14); format: functional, Mus musculus
[33] = system: Mus musculus; test: Average weight of the mouse after treating with 140 mg/kg dose for 7 days.; format: functional
[34] = system: L1210; test: In vivo antitumor activity against L1210 leukemia in 5 mice measured as Increased life span at 140 mg/kg.; format: functional; details: Mus musculus
[35] = system: L1210; test: In vivo antitumor activity against L1210 leukemia in 5 mice measured as Increased life span at 20 mg/kg.; format: functional; details: Mus musculus
[36] = system: L1210; test: In vivo antitumor activity against L1210 leukemia in 23 mice measured as T/C values(days); T/C = 23/9; format: functional, Mus musculus
[37] = system: L1210; test: In vivo antitumor activity against L1210 leukemia in 5 mice measured as T/C values(days); T/C = 21/9; format: functional, Mus musculus
[38] = system: L1210; test: In vivo antitumor activity against L1210 leukemia in 22 mice measured as T/C values(days); T/C = 22/9; format: functional, Mus musculus
[39] = system: L1210; test: In vivo antitumor activity against L1210 leukemia in 14 mice measured as T/C values(days); T/C = 14/9; format: functional, Mus musculus
[40] = system: Mus musculus; test: Average weight of the mouse after treating with 140 mg/kg dose for 1 day.; format: functional
[41] = system: L1210; test: In vivo antitumor activity against L1210 leukemia in 5 mice measured as median survival range at 140 mg/kg; Value ranges from(8-27).; format: functional, Mus musculus
[42] = system: Mus musculus; test: (§1) Average weight of the mouse after treating with 40 mg/kg dose for 7 days.; format: functional; design: unit not given beside the values
[43] = system: Mus musculus; test: Average weight of the mouse after treating with 80 mg/kg dose for 7 days.; format: functional; design: unit not given beside the values
[44] = system: L1210; test: In vivo antitumor activity against L1210 leukemia in 5 mice measured as median survival range at 40 mg/kg; Value ranges from(13-19); format: functional, Mus musculus
[45] = system: L1210; test: In vivo antitumor activity against L1210 leukemia in 5 mice measured as Increased life span at 80 mg/kg.; format: functional; details: Mus musculus
[46] = system: L1210; test: In vivo antitumor activity against L1210 leukemia in 5 mice measured as median survival range at 20 mg/kg; Value ranges from(11-19); format: functional, Mus musculus
[47] = system: L1210; test: In vivo antitumor activity against L1210 leukemia in 5 mice measured as median survival range at 40 mg/kg; value ranges from(11-21); format: functional, Mus musculus
[48] = system: L1210; test: In vivo antitumor activity against L1210 leukemia in 13 mice measured as T/C values; T/C = 13/9; format: functional, Mus musculus
[49] = system: L1210; test: In vivo antitumor activity against L1210 leukemia in 17 mice measured as T/C values; T/C = 17/9; format: functional, Mus musculus
[50] = system: Mus musculus; test: as §1; format: functional
[51] = system: Mus musculus; test: Average weight of the mouse after treating with 20 mg/kg dose for 7 day.; format: functional

SMILES: CN(Cc1cnc2nc(N)nc(N)c2n1)c1c(Cl)cc(C(=O)NC(CCC(=O)O)C(=O)O)cc1Cl (centres undefined)
- Range [1]: 15
- Range [2]: 18
- Range [3]: 20
- ILS at 240 mg/kg [4]: 67%
- ILS at 160 mg/kg [5]: 44%
- Weight change [6]: 2.9
- ILS at 280 mg/kg [7]: 89%
- Average weight [8]: 22.5
- ILS at 200 mg/kg [9]: 78%
- Weight change [10]: 1.4
- Range [11]: 18
- Weight change [12]: 2.4
- Weight change [13]: 1.8
- ILS at 120 mg/kg [14]: 22%
- T/C [15]: 9
- T/C [16]: 9
- T/C [17]: 9
- Average weight [18]: 21.4
- Weight change [19]: 2.1
- Average weight [20]: 22.4
- T/C [21]: 9
- Range [22]: 16
- Average weight [23]: 22.4
- Average weight [24]: 24.2

SMILES: CCCC(C)OC(=O)CCC(NC(=O)c1cc(Cl)c(N(C)Cc2cnc3nc(N)nc(N)c3n2)c(Cl)c1)C(=O)OC(C)CCC (centres undefined)
- Range [25]: 36
- Average weight [26]: 22.1
- Average weight [27]: 21.2
- ILS at 40 mg/kg [28]: 66%
- Range [29]: 26
- Average weight [30]: 20.6
- Weight change [31]: 2.6
- Range [32]: 14
- Weight change [33]: 3.2
- ILS at 140 mg/kg [34]: 155%
- Weight change [12]: 1.4
- ILS at 20 mg/kg [35]: 55%
- T/C [36]: 9
- ILS at 120 mg/kg [14]: 145%
- T/C [37]: 9
- T/C [15]: 9
- T/C [38]: 22
- T/C [39]: 9
- Average weight [40]: 21.6
- Range [41]: 27
- Weight change [42]: 0.1
- Weight change [43]: 1.5
- Range [44]: 19
- ILS at 80 mg/kg [45]: 133%
- Average weight [23]: 21.5

SMILES: Cc1cc(C)c(COC(=O)CCC(NC(=O)c2ccc(N(C)Cc3cnc4nc(N)nc(N)c4n3)cc2)C(=O)OCc2c(C)cc(C)cc2C)c(C)c1 (centres undefined)
- Average weight [26]: 20.4
- ILS at 40 mg/kg [28]: 88%
- Range [46]: 19
- Average weight [30]: 22
- Range [47]: 21
- ILS at 20 mg/kg [35]: 44%
- T/C [48]: 9
- T/C [49]: 9
- Weight change [50]: 0
- Weight change [51]: 0.8
